Each block holds one compound with its values, some of them ahead of it.
What was measured:
HT1080 cells = test: Cellular assay: inhibition of 2-HG production in HT1080 cells (LC-MS, 48 hours); assay type: cell-based; conditions: Homo sapiens, HT-1080, 2-HG in media by LC-MS
Summary of the method: (§1)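 HT1080 or U87MG cells (5000/well, DMEM + 10% FBS) seeded overnight, then exposed to compound (0.2% DMSO final) for 48 h; medium 2-HG measured by LC-MS. Viability read by CellTiter-Glo luminescence at 72 h.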

U87MG cells = test: Cellular assay: inhibition of 2-HG production in U87MG cells (LC-MS, 48 hours); assay type: cell-based; conditions: Homo sapiens, U-87 MG, 2-HG in media by LC-MS
Summary of the method: as §1

IDH1 R132H = IDH1 R132H (Homo sapiens, UniProt O75874, R132H); test: In vitro assay for IDH1 R132H inhibitors (NADPH/aKG, resazurin detection); assay type: biochemical; conditions: Table 4B; 0.2 μg/ml IDH1 R132H, 50 minutes at room temperature; read-out: IC50, IDH1 R132H Inhibition
Summary of the method: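 Reaction ran 50 min at room temperature in Tris pH 7.5 buffer with 150 mM NaCl, 10 mM MgCl2 and 0.03% BSA. Mix concentrations were 0.2 μg/ml mutant enzyme, 8 uM NADPH and 2 mM aKG. Detection added 30 μM resazurin, with resorufin fluorescence (Ex544/Em590) measured 5 min later.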

Chain of IDH1 R132H (O75874 whole entry R132H): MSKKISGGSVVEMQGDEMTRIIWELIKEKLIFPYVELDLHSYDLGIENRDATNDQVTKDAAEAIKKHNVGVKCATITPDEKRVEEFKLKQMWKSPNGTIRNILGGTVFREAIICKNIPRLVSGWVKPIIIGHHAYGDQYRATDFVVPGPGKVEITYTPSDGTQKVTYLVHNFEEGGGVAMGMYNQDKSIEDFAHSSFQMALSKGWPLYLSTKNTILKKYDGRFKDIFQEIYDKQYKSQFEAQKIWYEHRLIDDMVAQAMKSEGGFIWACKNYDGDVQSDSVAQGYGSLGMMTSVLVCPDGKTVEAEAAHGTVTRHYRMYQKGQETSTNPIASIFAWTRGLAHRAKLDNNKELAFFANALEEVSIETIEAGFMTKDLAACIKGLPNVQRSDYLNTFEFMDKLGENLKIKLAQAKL

SMILES: Cc1ccccc1C(C(=O)NC1CCCCC1)N(C(=O)COc1cccnc1)c1cccc(F)c1 (stereo not drawn) [Compound 197]
IC50 (HT1080 cells): 250 to 1000 nM | IC50 (U87MG cells): 250 to 1000 nM | IC50 (IDH1 R132H): ≤ 100 nM

SMILES: Cc1ccccc1C(C(=O)NC1CCCCC1)N(C(=O)CNc1cccnc1F)c1cccc(F)c1 (stereo not drawn) [Compound 272]
IC50 (HT1080 cells): ≤ 250 nM | IC50 (U87MG cells): ≤ 250 nM | IC50 (IDH1 R132H): ≤ 100 nM

SMILES: Cc1ccccc1C(C(=O)NC1CCCCC1)N(C(=O)CNc1ccc(C#N)cc1)c1cccc(F)c1 (stereo not drawn) [Compound 227]
IC50 (HT1080 cells): ≤ 250 nM | IC50 (U87MG cells): ≤ 250 nM | IC50 (IDH1 R132H): ≤ 100 nM

SMILES: Cc1ccccc1C(C(=O)NC1CCCCC1)N(C(=O)CNc1cccc(C#N)c1)c1cccc(F)c1 (stereo not drawn) [Compound 265]
IC50 (HT1080 cells): ≤ 250 nM | IC50 (U87MG cells): 250 to 1000 nM | IC50 (IDH1 R132H): ≤ 100 nM

SMILES: Cc1ccccc1C(C(=O)NC1CCCOC1)N(C(=O)Cc1cccs1)c1cccc(F)c1 (stereo not drawn) [Compound 200]
IC50 (HT1080 cells): 1000 to 5000 nM | IC50 (U87MG cells): 1000 to 5000 nM | IC50 (IDH1 R132H): 100 to 1000 nM

SMILES: Cc1ccccc1C(C(=O)NC1CCCCC1)N(C(=O)Cc1c[nH]c2cccnc12)c1cccc(F)c1 (stereo not drawn) [Compound 275]
IC50 (HT1080 cells): ≤ 250 nM | IC50 (U87MG cells): 250 to 1000 nM | IC50 (IDH1 R132H): ≤ 100 nM

SMILES: Cc1ccccc1C(C(=O)NC1CCCCC1)N(C(=O)Cn1cnc2ccccc21)c1ccn(C)n1 (stereo not drawn) [Compound 255]
IC50 (HT1080 cells): ≤ 250 nM | IC50 (U87MG cells): 250 to 1000 nM | IC50 (IDH1 R132H): 100 to 1000 nM

SMILES: COc1ccccc1NCC(=O)N(c1cccc(F)c1)C(C(=O)NC1CCCCC1)c1ccccc1C (stereo not drawn) [Compound 218]
IC50 (HT1080 cells): 250 to 1000 nM | IC50 (U87MG cells): 250 to 1000 nM | IC50 (IDH1 R132H): ≤ 100 nM

SMILES: Cc1ccccc1C(C(=O)NC1CCCCC1)N(C(=O)Cc1ccccn1)c1cccc(F)c1 (stereo not drawn) [Compound 305]
IC50 (HT1080 cells): 250 to 1000 nM | IC50 (U87MG cells): 250 to 1000 nM | IC50 (IDH1 R132H): 100 to 1000 nM

SMILES: Cc1ccccc1C(C(=O)NC1CCCCC1)N(C(=O)CNc1ncc[nH]1)c1cccc(F)c1 (stereo not drawn) [Compound 308]
IC50 (HT1080 cells): 1000 to 5000 nM | IC50 (U87MG cells): ≤ 250 nM | IC50 (IDH1 R132H): 100 to 1000 nM

SMILES: Cc1ccccc1C(C(=O)NC1CCN(C(=O)OC(C)(C)C)C1)N(C(=O)Cc1cccs1)c1cccc(F)c1 (stereo not drawn) [Compound 190]
IC50 (HT1080 cells): 1000 to 5000 nM | IC50 (U87MG cells): 1000 to 5000 nM | IC50 (IDH1 R132H): 100 to 1000 nM

SMILES: Cc1ccccc1C(C(=O)NC1CCCCC1)N(C(=O)Cn1ccnc1C)c1ccn(C)n1 (stereo not drawn) [Compound 246]
IC50 (HT1080 cells): 1000 to 5000 nM | IC50 (U87MG cells): 250 to 1000 nM | IC50 (IDH1 R132H): 100 to 1000 nM

SMILES: Cc1ccccc1C(C(=O)NC1CCCCC1)N(C(=O)COc1cccnn1)c1cccc(F)c1 (stereo not drawn) [Compound 273]
IC50 (HT1080 cells): 250 to 1000 nM | IC50 (U87MG cells): 250 to 1000 nM | IC50 (IDH1 R132H): 100 to 1000 nM

SMILES: Cc1ccccc1C(C(=O)NC1CC2CC2C1)N(C(=O)CNc1ncccc1F)c1cccc(F)c1 (stereo not drawn) [Compound 333]
IC50 (HT1080 cells): ≤ 250 nM | IC50 (U87MG cells): 1000 to 5000 nM | IC50 (IDH1 R132H): 100 to 1000 nM

SMILES: Cc1nccn1CC(=O)N(c1cccc(F)c1)C(C(=O)NC1CCCCC1)c1ccccc1Cl (stereo not drawn) [Compound 314]
IC50 (HT1080 cells): ≤ 250 nM | IC50 (U87MG cells): ≤ 250 nM | IC50 (IDH1 R132H): ≤ 100 nM

SMILES: COc1cccc(CNCC(=O)N(c2cccc(F)c2)C(C(=O)NC2CCCCC2)c2ccccc2C)c1 (stereo not drawn) [Compound 221]
IC50 (HT1080 cells): 1000 to 5000 nM | IC50 (U87MG cells): 1000 to 5000 nM | IC50 (IDH1 R132H): 100 to 1000 nM

Further lines, results first:

IC50 (HT1080 cells): 250 to 1000 nM | IC50 (U87MG cells): 1000 to 5000 nM | IC50 (IDH1 R132H): 100 to 1000 nM
SMILES: Cc1ccn(CC(=O)N(c2cccc(F)c2)C(C(=O)NC2CCCCC2)c2ccccc2C)n1 (stereo not drawn) [Compound 298]

IC50 (HT1080 cells): 250 to 1000 nM | IC50 (U87MG cells): 250 to 1000 nM | IC50 (IDH1 R132H): 100 to 1000 nM
SMILES: Cc1ccccc1C(C(=O)NC1CC(F)(F)C1)N(C(=O)CNc1ncccc1F)c1cccc(F)c1 (stereo not drawn) [Compound 379]

IC50 (HT1080 cells): ≤ 250 nM | IC50 (U87MG cells): 250 to 1000 nM | IC50 (IDH1 R132H): ≤ 100 nM
SMILES: Cc1ccccc1C(C(=O)NC1CCCCC1)N(C(=O)CNc1ccccn1)c1cccc(F)c1 (stereo not drawn) [Compound 316]

IC50 (HT1080 cells): 250 to 1000 nM | IC50 (U87MG cells): 1000 to 5000 nM | IC50 (IDH1 R132H): 100 to 1000 nM
SMILES: Cc1ccccc1C(C(=O)NC1CCCCC1)N(C(=O)COCc1ccccc1F)c1cccc(F)c1 (stereo not drawn) [Compound 222]

IC50 (HT1080 cells): 250 to 1000 nM | IC50 (U87MG cells): 1000 to 5000 nM | IC50 (IDH1 R132H): 100 to 1000 nM
SMILES: Cc1ccccc1C(C(=O)NC1CCOCC1)N(C(=O)CN1CCc2ccccc21)c1cccc(F)c1 (stereo not drawn) [Compound 195]

IC50 (HT1080 cells): 250 to 1000 nM | IC50 (U87MG cells): 1000 to 5000 nM | IC50 (IDH1 R132H): 100 to 1000 nM
SMILES: Cc1ccccc1C(C(=O)NC1CCCCC1)N(C(=O)Cc1c[nH]c2ccncc12)c1cccc(F)c1 (stereo not drawn) [Compound 261]

IC50 (HT1080 cells): 1000 to 5000 nM | IC50 (U87MG cells): 1000 to 5000 nM | IC50 (IDH1 R132H): 100 to 1000 nM
SMILES: COC(=O)N1CCN(CC(=O)N(Cc2cccs2)C(C(=O)NC2CCCCC2)c2ccccc2C)CC1 (stereo not drawn) [Compound 208]

IC50 (HT1080 cells): 250 to 1000 nM | IC50 (U87MG cells): 250 to 1000 nM | IC50 (IDH1 R132H): 100 to 1000 nM
SMILES: Cc1ccccc1C(C(=O)NC1CCCCC1)N(C(=O)CNc1ccc(S(C)(=O)=O)cc1)c1cccc(F)c1 (stereo not drawn) [Compound 258]
